Legend:
Type in all cases: in vivo
[1] = test system: cow in lactation with moderate mastitis; test: Treatment of mastitis in a lactating cow with oxazolidinone plus bovine lactoferrin by intramammary infusion; conditions: 3-lactation cow in lactation, 300 mg in combination with 3 g bovine lactoferrin once per day for 5 consecutive days, composite suspension
Procedure: A 3-lactation cow in lactation with moderate mastitis is administered 300 mg of the oxazolidinone in EXAMPLE 2 in combination with administration of 3 g of bovine lactoferrin, once per day for 5 consecutive days. The oxazolidinone and the lactoferrin are prepared in a composite suspension formulation and administered by intramammary infusion.

[2] = test system: cow without mastitis; test: Prevention of mastitis in a cow at the start of dry off period by intramammary infusion; conditions: 2-lactation cow without mastitis, single dose of 250 mg at start of dry off period, solution, mastitis occurs in untreated dry cows of same herd
Procedure: A 2-lactation cow without mastitis is administered a single dose of 250 mg of the oxazolidinone in EXAMPLE 2 at the start of dry off period. The oxazolidinone is formulated as a solution and administered by intramammary infusion. Although mastitis occurs in other dry cows that are in the same herd but are not treated with the oxazolidinones, the cow treated is not infected.

[3] = test system: cow in dry period with moderate mastitis; test: Treatment of mastitis in a dry-period cow by intramammary infusion; conditions: 3-lactation cow in dry period, 300 mg once per day for 5 days, solution
Procedure: A 3-lactation cow in dry period with moderate mastitis is administered 300 mg of the oxazolidinone in EXAMPLE 1, once per day for 5 days. The oxazolidinone is formulated as a solution and administered by intramammary infusion.

Q: With `CC(=O)NC[C@H]1CN(c2ccc(N3CCSCC3)c(F)c2)C(=O)O1` [EXAMPLE 2, N-[[(5S)-3-[3-fluoro-4-(4-thiomorpholinyl)phenyl]-2-oxo-1,3-oxazolidin-5-yl]methyl]acetamide] as the compound, how does the “mastitis status at the end of the treatment” value [1] read?
A: the mastitis is gone

Q: And the “occurrence of mastitis infection in treated cow” value [2]?
A: not infected

Q: For `CC(=O)NC[C@H]1CN(c2ccc(N3CCOCC3)c(F)c2)C(=O)O1` [EXAMPLE 1, (S)-N-[[3-[3-fluoro-4-(4-morpholinyl)phenyl]-2-oxo-5-oxazolidinyl]methyl]acetamide], which “mastitis status at the end of the treatment” value [3] is on record?
A: the mastitis is gone

— patent US6562820B2, “Method for treatment and prevention of mastitis” (Pharmacia & Upjohn Company, priority 2000, dated 2003)
